Assay results from doi:10.1101/2025.11.20.689572v1 (biorxiv, 2025).
Like-named read-outs stand apart in the source and are kept apart here.

How the values were obtained:
α2A = target: T1, α2A (Homo sapiens, UniProt P08913); test: competitive radioligand binding, HEK293 membranes
T1 construct: gene ADRA2A; full-length receptor; HEK293 cell membranes
Text: competitive radioligand binding, HEK293 membranes on α2A

α2C = target: T2, α2C (Homo sapiens, UniProt P18825); test: competitive radioligand binding, HEK293 membranes
T2 construct: gene ADRA2C; full-length receptor; HEK293 cell membranes
Text: competitive radioligand binding, HEK293 membranes on α2C

D3 = target: T3, D3 (Homo sapiens, UniProt P35462); test: competitive radioligand binding, HEK293 membranes
T3 construct: gene DRD3; full-length receptor; HEK293 cell membranes
Text: competitive radioligand binding, HEK293 membranes on D3

M1 = target: T4, M1 (Homo sapiens, UniProt P11229); test: TRUPATH BRET2 G protein dissociation, HEK293; format: cell-based; settings: HBSS, […] HEPES pH […] °C; agonist mode
T4 construct: gene CHRM1; full-length receptor; HEK293 with TRUPATH sensors (function)
T4 sequence (P11229 1-460): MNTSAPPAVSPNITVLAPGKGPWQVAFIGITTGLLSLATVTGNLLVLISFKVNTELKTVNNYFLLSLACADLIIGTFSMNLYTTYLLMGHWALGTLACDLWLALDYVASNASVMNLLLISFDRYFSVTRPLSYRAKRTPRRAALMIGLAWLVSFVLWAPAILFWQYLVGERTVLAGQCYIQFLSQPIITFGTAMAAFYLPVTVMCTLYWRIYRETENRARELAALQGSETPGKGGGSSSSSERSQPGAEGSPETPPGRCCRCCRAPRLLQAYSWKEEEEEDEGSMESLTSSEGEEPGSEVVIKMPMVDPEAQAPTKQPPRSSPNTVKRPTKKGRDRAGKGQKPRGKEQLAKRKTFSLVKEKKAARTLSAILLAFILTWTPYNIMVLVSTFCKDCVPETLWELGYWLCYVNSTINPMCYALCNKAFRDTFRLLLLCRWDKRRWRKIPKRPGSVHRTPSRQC

CHRM4 [1] = target: T5, CHRM4 (Homo sapiens, UniProt P08173); test: cell-based; parameters: PRESTO-Tango beta-arrestin2 recruitment, luciferase luminescence, concentration-response; settings: HTLA, Assay=Tango, agonist mode, % of control agonist
T5 sequence (P08173 1-479): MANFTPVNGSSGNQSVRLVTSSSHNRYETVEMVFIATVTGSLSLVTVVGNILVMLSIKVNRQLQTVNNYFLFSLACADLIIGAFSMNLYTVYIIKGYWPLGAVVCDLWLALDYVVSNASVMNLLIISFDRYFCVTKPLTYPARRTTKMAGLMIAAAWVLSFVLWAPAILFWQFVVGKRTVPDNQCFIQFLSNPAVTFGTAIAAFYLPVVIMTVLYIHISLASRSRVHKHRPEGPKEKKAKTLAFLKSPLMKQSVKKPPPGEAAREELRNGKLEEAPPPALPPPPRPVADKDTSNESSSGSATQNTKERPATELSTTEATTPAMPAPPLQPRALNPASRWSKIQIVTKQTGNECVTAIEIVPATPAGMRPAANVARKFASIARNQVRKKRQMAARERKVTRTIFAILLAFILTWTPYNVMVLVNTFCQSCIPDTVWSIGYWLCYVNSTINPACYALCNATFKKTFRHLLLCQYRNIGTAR
Description: Off-target agonism across the human GPCRome was profiled using PRESTO-Tango, following established protocols with minor adaptations [10]–[12]. […] After ~6 h recovery, cells were transfected with 20 ng plasmid DNA per well and incubated overnight. The next day, 10 µL of test compound (prepared in DMEM + 1% dFBS) was added, and plates were incubated overnight. Media and compounds were removed, and 20 µL per well of Bright-Glo luciferase reagent diluted in assay buffer (Hank’s Balanced Salt Solution (HBSS), 20 mM HEPES, pH 7.4) was added. After 20 min at room temperature (dark), luminescence was recorded. Each plate included the dopamine D2 receptor (DRD2) stimulated with 100 nM quinpirole as a positive control. For the GPCRome screen, each receptor was tested in quadruplicate at 0 and 10 µM compound (final). Responses were expressed as fold change relative to the basal (0 µM) condition. Follow-up concentration–response assays were performed under identical conditions except that serial dilutions of compounds (maximum ~30 µM, final) were added to generate full concentration–response curves.

CHRM1 = target: T6, CHRM1 (Homo sapiens, UniProt P11229); test: cell-based; parameters: species or system HEK293; BRET1 beta-arrestin2 recruitment, receptor-RLuc8 and mVenus-beta-arrestin2 with GRK2; settings: Assay=barr2, agonist mode, % of control agonist
T6 sequence (P11229 1-460): T4 sequence (P11229 1-460)
Text: (§1) BRET1 assays followed prior methods.

CHRM3 [2] = target: T7, CHRM3 (Homo sapiens, UniProt P20309); test: cell-based; parameters: species or system HEK293; BRET1 beta-arrestin2 recruitment, receptor-RLuc8 and mVenus-beta-arrestin2 with GRK2; settings: Assay=barr2, agonist mode, % of control agonist
Text: as §1

CHRM4 [3] = target: T5, CHRM4; test: cell-based; parameters: species or system HEK293; BRET1 beta-arrestin2 recruitment, receptor-RLuc8 and mVenus-beta-arrestin2 with GRK2; settings: Assay=barr2, agonist mode, % of control agonist
Text: as §1

CHRM3 [4] = target: T7, CHRM3; test: cell-based; parameters: species or system HEK293; Fluo-4 Direct calcium mobilization on FLIPR-Tetra; settings: Assay=Calcium; agonist mode
[5] = HEK293, read-out: N-Desmethyl Xanomeline

T7 sequence (P20309 whole entry): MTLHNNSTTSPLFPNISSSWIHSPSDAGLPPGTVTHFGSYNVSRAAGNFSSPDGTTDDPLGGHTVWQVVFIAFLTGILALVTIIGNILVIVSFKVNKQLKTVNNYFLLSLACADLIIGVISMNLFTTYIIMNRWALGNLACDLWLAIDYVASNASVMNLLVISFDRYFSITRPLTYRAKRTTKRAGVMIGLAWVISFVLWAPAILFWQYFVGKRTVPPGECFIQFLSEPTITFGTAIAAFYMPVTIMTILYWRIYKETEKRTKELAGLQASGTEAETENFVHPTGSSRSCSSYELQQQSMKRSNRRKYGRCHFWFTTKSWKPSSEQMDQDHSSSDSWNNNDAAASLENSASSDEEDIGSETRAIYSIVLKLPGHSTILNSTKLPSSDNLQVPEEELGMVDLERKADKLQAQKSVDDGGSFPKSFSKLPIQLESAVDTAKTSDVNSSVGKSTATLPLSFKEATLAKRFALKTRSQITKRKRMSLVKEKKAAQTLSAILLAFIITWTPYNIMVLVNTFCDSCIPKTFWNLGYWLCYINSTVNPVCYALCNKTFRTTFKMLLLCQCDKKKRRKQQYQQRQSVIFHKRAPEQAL
T3 sequence (P35462 whole entry): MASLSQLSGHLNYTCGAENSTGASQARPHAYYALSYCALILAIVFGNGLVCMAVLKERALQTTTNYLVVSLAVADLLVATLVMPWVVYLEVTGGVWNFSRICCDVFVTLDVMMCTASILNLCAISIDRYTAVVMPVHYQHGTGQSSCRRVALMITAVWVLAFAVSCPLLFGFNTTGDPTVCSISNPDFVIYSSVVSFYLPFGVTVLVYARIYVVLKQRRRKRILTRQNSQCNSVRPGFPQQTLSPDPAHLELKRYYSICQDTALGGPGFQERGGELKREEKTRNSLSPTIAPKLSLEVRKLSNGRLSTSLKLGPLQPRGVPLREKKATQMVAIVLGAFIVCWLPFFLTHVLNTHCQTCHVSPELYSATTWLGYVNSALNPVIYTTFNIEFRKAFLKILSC
T2 sequence (P18825 whole entry): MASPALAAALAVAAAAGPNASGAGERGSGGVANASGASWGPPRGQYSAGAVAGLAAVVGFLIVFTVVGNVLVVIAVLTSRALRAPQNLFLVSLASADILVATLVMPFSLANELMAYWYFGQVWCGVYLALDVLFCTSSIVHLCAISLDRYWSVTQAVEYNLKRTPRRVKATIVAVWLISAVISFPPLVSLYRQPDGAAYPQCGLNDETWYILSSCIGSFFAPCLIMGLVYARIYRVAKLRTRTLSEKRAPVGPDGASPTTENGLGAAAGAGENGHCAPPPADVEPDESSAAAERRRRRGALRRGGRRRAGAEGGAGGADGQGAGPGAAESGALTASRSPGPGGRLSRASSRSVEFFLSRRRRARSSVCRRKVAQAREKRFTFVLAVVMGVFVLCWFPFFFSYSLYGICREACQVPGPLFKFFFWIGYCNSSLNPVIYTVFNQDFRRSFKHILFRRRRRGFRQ
T1 sequence (P08913 whole entry): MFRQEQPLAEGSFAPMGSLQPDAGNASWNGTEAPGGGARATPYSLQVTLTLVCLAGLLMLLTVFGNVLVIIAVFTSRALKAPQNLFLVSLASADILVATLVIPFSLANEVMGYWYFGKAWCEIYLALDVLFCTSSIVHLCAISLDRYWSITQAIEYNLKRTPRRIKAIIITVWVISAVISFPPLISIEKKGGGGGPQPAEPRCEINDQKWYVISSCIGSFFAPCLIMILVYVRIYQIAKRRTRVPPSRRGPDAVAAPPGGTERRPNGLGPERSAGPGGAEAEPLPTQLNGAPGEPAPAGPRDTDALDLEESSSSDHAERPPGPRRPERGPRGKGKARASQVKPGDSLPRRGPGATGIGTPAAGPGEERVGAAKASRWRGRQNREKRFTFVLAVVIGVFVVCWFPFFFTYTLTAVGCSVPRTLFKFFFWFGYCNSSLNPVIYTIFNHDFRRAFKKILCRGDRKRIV

Row | SMILES | Ki (α2A) | Ki (α2C) | Ki (D3) | EC50 (M1) | Emax (CHRM4 [1]; read-out: Xanomeline) | Emax (CHRM1; HEK293, read-out: Xanomeline) | Emax (CHRM3 [2]; HEK293, read-out: Xanomeline) | Emax (CHRM4 [3]; HEK293, read-out: Xanomeline) | EC50 (CHRM3 [4]) | Emax (CHRM4 [1]; read-out: N-Desmethyl Xanomeline) | Emax (CHRM1; [5]) | Emax (CHRM3 [2]; [5]) | Emax (CHRM4 [3]; [5])
1 | CCCCCCOc1nsnc1C1=CCCN(C)C1 [Xanomeline] | 955 nM | 158 nM | 251 nM | xanomeline being more potent and efficacious than carbachol at M1 and M4 muscarinic receptors | 72.5% | 73.2% | 21.7% | 29.1% | 34 nM |  |  |  | 
2 | CCCCCCOc1nsnc1C1=CCCNC1 [N-desmethylxanomeline] | 437 nM | 209 nM | 646 nM | differential activation of M1-M5 muscarinic receptor transducers |  |  |  |  | 64.1 nM | 67.5% | 71.3% | 32.8% | 20.5%
